According to PubChem BioAssay (NCI):
Several values for one entry are separate records, joined by “and”; a condition that tells them apart may be missing. Equal entries are not always repeated.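 Following 48 hours of exposure in 96-well plates, responses at five concentrations were used to interpolate endpoints linearly. Abbreviation: GI50, concentration required for 50% inhibition of growth. TGI marks complete inhibition of growth.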

What was measured:
Assay in all cases: DTP human tumour cell line panel, 48 h
DLD-1 colon = system: DLD-1 colon
DMS 114 small cell lung = system: DMS 114 small cell lung
DMS 273 small cell lung = system: DMS 273 small cell lung
KM20L2 colon = system: KM20L2 colon
LXFL 529 NSCLC = system: LXFL 529 NSCLC
RXF-631 renal = system: RXF-631 renal
SNB-78 CNS = system: SNB-78 CNS
MDA-N = system: MDA-N
HOP-18 NSCLC = system: HOP-18 NSCLC

SMILES | TGI (DLD-1 colon) [µM] | TGI (DMS 114 small cell lung) [µM] | TGI (DMS 273 small cell lung) | TGI (KM20L2 colon) [µM] | TGI (LXFL 529 NSCLC) [µM] | TGI (RXF-631 renal) | TGI (SNB-78 CNS) | TGI (MDA-N) | TGI (HOP-18 NSCLC) [µM] | also measured
OCc1c[te]c(-c2ccccc2)c1 | > 100 | 91.7 | > 100 µM | > 100 | > 100 | > 100 µM | > 100 µM |  |  | 
CC(=O)Nc1ccc(COC(O)CN2CCCCC2)cc1[N+](=O)[O-] (stereo not drawn) |  |  |  |  |  |  |  | > 100 µM |  | 
Cc1ccc(NC(=O)/C(Cl)=C(/Cl)C(=O)O)cc1 | 33.5 | 34.2 | 41.7 µM | 40.3 | 26.6 | 49.8 µM | 53.4 µM |  | 34.7 | 
CC(=O)[CH-]C(=O)c1ccccc1.CC(=O)[CH-]C(=O)c1ccccc1.C[C@]12CCC(=O)C=C1CC[C@@H]1C2CC[C@@]2(C)C1CC[C@@H]2[O-].C[C@]12CCC(=O)C=C1CC[C@@H]1C2CC[C@@]2(C)C1CC[C@@H]2[O-].Cl.[Ti+4] (stereo partly drawn) | 45.9 |  | 69.5 µM | 34.1 | 87.3 |  |  |  | 91.4 | GI50 (DLD-1 colon): 18.3 µM; GI50 (DMS 273 small cell lung): 21.2 µM; GI50 (HOP-18 NSCLC): 28.6 µM; GI50 (KM20L2 colon): 13.1 µM; GI50 (LXFL 529 NSCLC): 24.3 µM
NCCNCc1c2ccccc2c(CNCCN)c2ccccc12 | > 100 | 33.1 |  | 74.1 | 22.1 | > 100 µM | 82.1 µM |  | 90.1 | 
O=c1ssc(Cl)c1Cl |  |  |  |  |  |  |  | > 10 µM |  | 
COc1ccc(C(=O)C(c2ccc(OCc3ccccc3)cc2)c2ccc(OCc3ccccc3)cc2)cc1 | > 100 | > 100 | > 100 µM | > 100 |  | > 100 µM | > 100 µM |  |  | 
OCCN1CCN2C=C(C3CCCC4N(CCO)CCN34)CCC21 (stereo not drawn) | > 100 | 72.5 | > 100 µM | > 100 | > 100 |  | > 100 µM |  | > 100 | 
CC(C)(C)c1c2c(c(C(C)(C)C)c3c1OCN(Cc1ccccc1)C3)OCN(Cc1ccccc1)C2 |  |  |  |  |  |  |  | 30.3 µM |  | 
O=C(O)c1ccc(C(=O)O)c(C(=O)Nc2ccc3c(c2)C(=O)c2ccccc2-3)c1 |  |  |  |  |  |  |  | > 100 µM |  | 
COc1ccc(C2C(C)C(=O)C(C)C(c3ccc(OC)cc3)N2N=O)cc1 (stereo not drawn) | > 1000 | > 1000 | 750 µM and > 1000 µM | > 1000 | > 1000 | 750 µM and 281 µM | > 78.2 µM and 750 µM and > 902 µM | 381 µM | > 1000 | GI50 (DLD-1 colon): > 750 µM; GI50 (DMS 114 small cell lung): > 1000 µM; GI50 (DMS 273 small cell lung): 609 µM; GI50 (HOP-18 NSCLC): > 1000 µM; GI50 (LXFL 529 NSCLC): > 1000 µM; GI50 (RXF-631 renal): 270 µM; GI50 (SNB-78 CNS): > 46.2 µM and 96.1 µM
Cc1cc(C)nc(NS(=O)(=O)c2ccc(Nc3c4ccc(Cl)cc4nc4c(C(=O)NCCN(C)C)cccc34)cc2)n1 | > 100 | > 100 | > 100 µM | > 100 | > 100 | > 100 µM | > 100 µM |  |  | 
O=C(/C(=C\c1ccc(Cl)cc1)c1ccccc1)c1ccccc1 | > 100 | > 100 |  |  | > 100 |  | > 100 µM |  | > 100 | 
COc1cc2c(cc1OC)C1Cc3cc(OC)c(OC)cc3C(C2)N1C | > 100 |  |  | > 100 | > 100 |  | > 100 µM | > 75 µM |  | 
CC#CC1C2CCCC1(CSc1ccccc1)NC(=O)O2 (stereo not drawn) | > 100 | > 100 | > 100 µM | > 100 | > 100 | > 100 µM | > 100 µM |  | > 100 | 
CC(=O)OC12COC1CC(O)C1(C)C(=O)C(O)C3=C(C)C(O)CC(O)(C(OC(=O)c4ccccc4)C21)C3(C)C (stereo not drawn) |  |  | 17.6 µM | 5.42 |  |  | > 100 µM |  |  | 
c1ccc2c(c1)N=C(c1cccc3ccccc13)CC(c1ccc3c(c1)OCO3)S2 (stereo not drawn) | > 100 |  | > 100 µM | > 100 | > 100 | > 100 µM | > 100 µM |  | > 100 | 

SMILES | TGI (DLD-1 colon) [µM] | TGI (DMS 114 small cell lung) [µM] | TGI (DMS 273 small cell lung) | TGI (KM20L2 colon) [µM] | TGI (LXFL 529 NSCLC) [µM] | TGI (RXF-631 renal) | TGI (SNB-78 CNS) | TGI (MDA-N) | TGI (HOP-18 NSCLC) [µM] | also measured
CS(=O)(=O)CC(=O)c1ccccc1 |  |  |  |  |  |  |  | > 100 µM |  | 
CCNC(=O)O/N=C1\CCC2[C@@H]3CC=C4C[C@@H](OC5CCCCO5)CC[C@]4(C)C3CC[C@]12C (stereo partly drawn) | > 100 |  |  | 12.4 | 2.43 | 22.4 µM | 6.42 µM |  | 4.28 | 
CC(C)(C)CC(N)=O |  |  |  |  |  |  |  | > 100 µM |  | 
C=C(C(=C)P(=S)(c1ccccc1)c1ccccc1)P(=S)(c1ccccc1)c1ccccc1 |  | > 100 | > 100 µM | > 100 | > 100 |  | > 100 µM |  | > 100 | 
O=C1CCSC2=C1SCc1sccc12 | > 100 | > 100 |  | > 100 | > 100 |  | > 100 µM |  |  | 
COc1ccccc1NC(=O)c1nc2ccc([N+](=O)[O-])cc2nc1C | > 100 | > 100 | > 100 µM | > 100 | > 100 |  |  |  | 39.9 | 
Cc1cc(C(C)(C)C)cc(CNC2CCCCC2)c1O |  |  |  |  |  |  |  | 29.9 µM |  | 
Clc1ccc(-c2c(C3=NCCCN3)nnn2-c2ccccc2)cc1 | > 100 | > 100 | > 100 µM | > 100 | > 100 | > 100 µM | > 100 µM |  | > 100 | 
CC1=CC(N2C(=O)C(C)=CC2O)NC1=O (stereo not drawn) | > 100 |  |  | > 100 | > 100 |  | > 100 µM |  |  | 
COC(=O)C1=C(C(=O)OC)C2(C)Nc3ccccc3C2=C(c2ccccc2)C1 (stereo not drawn) | > 100 | 44.4 | 43.7 µM | 74.3 | 32.1 |  | 46.9 µM |  |  | 
CC(=O)NC1C(OCc2ccccc2)OC(COC(=O)CCCCCCCCCCNc2ccc([N+](=O)[O-])c3[nH]c4ccccc4c(=O)c23)C(O)C1OC(C)C(=O)NC(C)C(=O)NC(CCC(N)=O)C(=O)OCc1ccccc1 (stereo not drawn) | > 100 | > 100 | > 100 µM | > 100 | > 100 |  | > 100 µM |  | > 100 | 
O=C1c2cc([N+](=O)[O-])ccc2-c2ccc3c4ccc5c6c(ccc(c7ccc1c2c73)c64)C(=O)c1cc([N+](=O)[O-])ccc1-5 |  |  |  |  |  |  |  | > 100 µM |  | 
NCC1OC(OC2C(CO)OC(OC3C(O)C(N)CC(N)C3OC3OC(CO)C(O)CC3N)C2O)C(N)C(O)C1OC1OC(CO)C(O)C(O)C1O (stereo not drawn) |  |  |  |  |  |  |  | > 50 µg/mL |  | GI50 (MDA-N): > 50 µg/mL
CN1CCN(C)C12C=CC=CC21CC1 | > 100 | > 100 | > 100 µM | > 100 |  | > 100 µM | > 100 µM |  | > 100 | 
CC1OC(OC2C(OC3CCC4(C)C(CCC5(C)C4CC=C4C6CC(C)(C)CCC6(C(=O)O)CCC45C)C3(C)CO)OCC(O)C2O)C(O)C(O)C1O (stereo not drawn) |  |  |  |  |  |  |  | 39.9 µM |  | 
O=C(COC(=O)c1cccc2c(=O)c3ccccc3[nH]c12)Nc1ccc(C(=O)O)cc1 | > 100 | > 100 |  | > 100 |  | > 100 µM | > 100 µM |  | > 100 | 
